Laboratory results as given in US7495028B2, “R-bambuterol, its preparation and therapeutic uses” (priority 2002, dated 2009).

How the values were obtained:
[1] = test system: conscious guinea pigs exposed to aerosol histamine; assay: Protection against histamine-evoked asthma in conscious guinea pigs; assay type: in vivo, guinea pig; settings: for Collapsed n: 8 animals; for % collapse / Latency time of collapse: dose-response, four hours before exposure
Experimental: Test methods: Guinea pigs (Dunki-Hartley strain, 190±30 g) were fasted overnight but given water ad libidum. The animals were restrained individually in a glass chamber and exposed to aerosol histamine generated by a nebulizer from a 0.2% aqueous solution of histamine under constant pressure at dose of 0.5 ml/min for a period of 15 sec. The animal was removed from the chamber, and its behavior was monitored. A sign of collapse and the latency time from exposure to collapse were recorded. Only the animals with latency time less than 120 sec, as an indication of sensitive to histamine, were chosen for later experiments. The animals chosen were allowed to recover completly by resting for 24 hours before experiments. Test compounds and racemic bambuterol hydrochloride were dissolved in saline.
Time course of the effect of test compounds: R-Bambuterol hydrochloride or racemic bambuterol hydrochloride at 2, 4 and 8 mg/kg, and vehicle alone, were administered to the guinea pigs orally via a stomach tube. Exposure of treated animals to aerosol histamine (as above) was done at 1, 4 and 24 hours after treatment. For each experimental group, there were a total of 8 animals with equal number of both sexes, and no repeated exposure was made for individual experimental animals.
Study of dose-response of test compounds: Four hours before the exposure to aerosol histamine, animals were randomized into groups (n=8, equal male and female), and given R-bambuterol hydrochloride or racemic bambuterol in doses of 0.25, 0.5, 1.0, 2.0, 4.0 and 8.0 mg/kg, and vehicle control, orally via a stomach tube. The numbers of collapsed animal as a result of asthmatic reaction to aerosol histamine were counted, and the latency times were recorded. Both of these parameters were used as quantitative measurements of the protective effects of the treatments on bronchospasm evoked by aerosol histamine.

[2] = test system: rats; assay: Cardiovascular effects in anesthetized rats; assay type: in vivo; settings: 30 mg/kg intravenously
Description: Test method: Rats (Sprague Dawley, 250-300 g) were randomized into two groups (n=6, equal sexes). After anesthesia, plastic tubing was introduced into a carotid artery of each animal and connected to pressure transducers to record mean artery pressure (MBP) and heart rate (HR). Another tube was introduced into the left ventricular chamber via the another carotid artery and connected to a pressure transducer. Left ventricular systolic pressure (LVSP) and the first order of differential of LVSP (dp/dt) as an index for inotropic effects were recorded. R-Bambuterol and racemic bambuterol hydrochloride were dissolved in saline and administrated intravenously at 30 mg/kg to each animal. The HR, MBP and Max dp/dt were measured before treatment (control) and after the treatments when the maximum response occurred, and 20 min after treatment as indication of recovery.

[3] = test system: hyperlipidemia mice; assay: Lipid lowering effects in Tyloxapol-induced hyperlipidemia mice; assay type: in vivo
Experimental: Test method: Male and […] mice, Kunming strain, 35 each, weight 18-22 grams, were used. Food and water were available ad libitum. The animals were randomized into 7 groups (n=10). Groups of animals were administered orafly, via a stomach tube, vehicle (distilled water, two groups), R-bambuterol hydrochloride (10 mg/kg and 5 mg/kg), racemic bambuterol hydrochloride (10 mg/kg and 5 mg/kg) and simvastatin (10 mg/kg) once a day for four days. With the exception of one vehicle—treated group (as control), Tyloxapol (400 mg/kg, Sigma Chemical Co.) was injected into the peritoneal cavity of the mice of all groups immediately after the last treatment on the fourth day in order to induce hyperlipidemia. All the animals were fasted overnight prior to the injection of Tyloxapol. Blood samples were collected by cardiac puncture 24 hours after the injection of Tyloxapol. The blood samples were processed to plasma, and concentration of triglycerides (TG), cholesterol (CHO), high density lipoprotein (HDL), low density lipoprotein (LDL) and very low density lipoprotein (VLDL) were measured with an autoblood analyzer (Olympic, Japan).

Compound: CN(C)C(=O)Oc1cc(OC(=O)N(C)C)cc(C(O)CNC(C)(C)C)c1 (stereo not drawn) [RS-bambuterol, bambuterol]
- Collapsed % ([1]; 2 mg/kg oral, 1st Hour): 75.0%
- Latency ([1]; 2 mg/kg oral, 1st Hour): 168 ± 61 s
- Collapsed n ([1]; 2 mg/kg oral, 1st Hour): 6.0
- Collapsed % ([1]; 2 mg/kg oral, 4th Hour): 50.0%
- Latency ([1]; 2 mg/kg oral, 4th Hour): 227 ± 56 s
- Collapsed n ([1]; 2 mg/kg oral, 4th Hour): 4.0
- Collapsed % ([1]; 2 mg/kg oral, 24th Hour): 50.0%
- Latency ([1]; 2 mg/kg oral, 24th Hour): 208 ± 65 s
- Collapsed n ([1]; 2 mg/kg oral, 24th Hour): 5.0
- Collapsed % ([1]; 4 mg/kg oral, 1st Hour): 62.5%
- Latency ([1]; 4 mg/kg oral, 1st Hour): 199 ± 63 s
- Collapsed n ([1]; 4 mg/kg oral, 1st Hour): 5.0
- Collapsed % ([1]; 4 mg/kg oral, 4th Hour): 25.0%
- Latency ([1]; 4 mg/kg oral, 4th Hour): 299 ± 51 s
- Collapsed n ([1]; 4 mg/kg oral, 4th Hour): 2.0
- Collapsed % ([1]; 4 mg/kg oral, 24th Hour): 37.5%
- Latency ([1]; 4 mg/kg oral, 24th Hour): 287 ± 57 s
- Collapsed n ([1]; 4 mg/kg oral, 24th Hour): 3.0
- Collapsed % ([1]; 8 mg/kg oral, 1st Hour): 37.5%
- Latency ([1]; 8 mg/kg oral, 1st Hour): 260 ± 66 s
- Collapsed n ([1]; 8 mg/kg oral, 1st Hour): 3.0
- Collapsed % ([1]; 8 mg/kg oral, 4th Hour): 0.0%
- Latency ([1]; 8 mg/kg oral, 4th Hour): >360 s
- Collapsed n ([1]; 8 mg/kg oral, 4th Hour): 0.0
- Collapsed % ([1]; 8 mg/kg oral, 24th Hour): 25.0%
- Latency ([1]; 8 mg/kg oral, 24th Hour): 303 ± 54 s
- Collapsed n ([1]; 8 mg/kg oral, 24th Hour): 2.0
- % collapse ([1]; 0.25 mg/kg oral): 100%
- Latency time of collapse ([1]; 0.25 mg/kg oral): 61 s
- % collapse ([1]; 0.5 mg/kg oral): 87.5%
- Latency time of collapse ([1]; 0.5 mg/kg oral): 114 s
- % collapse ([1]; 1 mg/kg oral): 75%
- Latency time of collapse ([1]; 1 mg/kg oral): 151 s
- % collapse ([1]; 2 mg/kg oral): 50%
- Latency time of collapse ([1]; 2 mg/kg oral): 227 s
- % collapse ([1]; 4 mg/kg oral): 25%
- Latency time of collapse ([1]; 4 mg/kg oral): 299 s
- % collapse ([1]; 8 mg/kg oral): 0%
- Latency time of collapse ([1]; 8 mg/kg oral): >360 s
- Duration of protective effects ([1]; oral 2 to 8 mg/kg): 24 h
- Onset of protective effects after administration ([1]; oral 2 to 8 mg/kg): one
- Time of maximum protective effects after administration ([1]; oral 2 to 8 mg/kg): 4 h
- Dose at which full protective effect was seen ([1]; oral, collapse after aerosol histamine): 8 mg/kg
- ED50 (protection against collapse) ([1]; oral, four hours before aerosol histamine): 1.68 mg/kg
- Dose at which maximum effects on latency were seen ([1]; oral, latency time to collapse): 8 mg/kg
- MBP 20 min after Δ, % of control ([2]; 20 min after treatment): 8.3%
- MBP, 20 min after Δ ([2]; 20 min after treatment): 1.1 ± 0.4 Kpa
- Maxdp/dt 20 min after Δ, % of control ([2]; 20 min after treatment): 4.8%
- Maxdp/dt, 20 min after Δ ([2]; 20 min after treatment): 13 ± 3.8 Kpa/sec
- HR 20 min after Δ, % of Control ([2]; 20 min after treatment, listed as Rac-Bambuterol): 9.5%
- HR 20 min after Δ, % of Control ([2]; 20 min after treatment, listed as racemic bambuterol hydrochloride): 9.5%
- HR Treatment Δ, % of Control ([2]; maximum response): 20.6%
- HR, Treatment Δ ([2]; maximum response): 85.8 ± 5 Beat/min
- MBP Treatment Δ, % of control ([2]; maximum response): 31.6%
- MBP, Treatment Δ ([2]; maximum response): 4.2 ± 0.5 Kpa
- Maxdp/dt, Treatment Δ ([2]; maximum response): 65.4 ± 9 Kpa/sec
- Maxdp/dt Treatment Δ, % of control ([2]; maximum response, listed as Rac-Bambuterol): 24.4%
- Maxdp/dt Treatment Δ, % of control ([2]; maximum response, listed as racemic bambuterol): 24.4%
- CHO lipid level ([3]; Tyl + 10 mg): 125.2 ± 19.8 mg/dL
- HDL lipid level ([3]; Tyl + 10 mg): 50 ± 17 mg/dL
- LDL lipid level ([3]; Tyl + 10 mg): 30 ± 6 mg/dL
- VLDL lipid level ([3]; Tyl + 10 mg): 44.2 ± 14.4 mg/dL
- TG lipid level ([3]; Tyl + 10 mg (10 mg/kg oral once a day for four days), plasma 24 hours after Tyloxapol): 148 ± 45 mg/dL
